Assay results taken from PMC7281072 (Cancers, 2020).

Tests used:
[1] = tested on: SKOV-3 human ovarian adenocarcinoma xenograft; parameters: species or system CB17 SCID mice; conditions: mouse, in vivo; as to MST (mean survival time): test concentration or dose not given here; as to TI% (Tumor Inhibition): test concentration or dose not given here
CB17 SCID mice = conditions: both, mouse, in vivo, ip
in vivo = conditions: both, CB17 SCID, mouse, ip
[2] = tested on: OVCAR-5 human ovarian adenocarcinoma xenograft; parameters: species or system CB17 SCID mice; conditions: mouse, in vivo; as to MST (mean survival time): test concentration or dose not given here; as to TI% (Tumor Inhibition): test concentration or dose not given here

## NC(Cc1ccc(N(CCCl)CCCl)cc1)C(=O)O [L-PAM, 2-amino-3-(4-(bis (2-chloroethyl)amino)phenyl) propanoic acid, reference compound]
[1]
  Median Overall Survival (OS): 49 days
  Progression Free Survival (PFS): 0 days
  Response Rate (RR): 0%
  antitumor activity (in words): no significant antitumor activity
[1]; ip
  Cures (mice alive for 120 days after tumor inoculation): 0/5
  MST (mean survival time): 48.5 ± 2.3 days
  T/C% (mean survival time of treated versus saline controls): 119.7%
  TI% (Tumor Inhibition): 10.5%
CB17 SCID mice
  LD10: 14 mg/kg
In vivo
  LD50: 20.8 mg/kg
[2]
  Median Overall Survival (OS): 60 days
  Progression Free Survival (PFS): 0 days
  Response Rate (RR): 0%
  antitumor activity (in words): no significant antitumor activity
[2]; ip
  Cures (mice alive for 120 days after tumor inoculation): 0/5
  MST (mean survival time): 61.0 ± 4.3 days
  T/C% (mean survival time of treated versus saline controls): 120.8%
  TI% (Tumor Inhibition): 24.5%
